According to ChEMBL document CHEMBL4804286, “3-amino-4-(4-(4 (dimethylcarbamoyl) phenyl)-1,4-diazepan-1-yl) thieno [2,3-b] pyridine-2-carboxamide for use in cancer therapy and formulations comprising the same” (2020):
Several values for one entry are separate records, joined by “and”; a condition that tells them apart may be missing. Equal entries are not always repeated. Activity calls are given as the source filed them. No cut-off for these calls is given here.

Legend:
[1] = target: Atypical kinase COQ8B, mitochondrial (Homo sapiens) (UniProt Q96D53); assay: Inhibition of human ADCK4 assessed as percent of control at 2000 nM by KINOMEscan assay relative to control; design: scale not given: the % may be the effect or the level left
[2] = target: Tyrosine-protein kinase receptor UFO (Homo sapiens) (UniProt P30530); assay: Inhibition of human AXL assessed as percent of control at 2000 nM by KINOMEscan assay relative to control; design: scale not given: the % may be the effect or the level left
[3] = target: Protein kinase C eta type (Homo sapiens) (UniProt P24723); assay: Inhibition of human PRKCH assessed as percent of control at 2000 nM by KINOMEscan assay relative to control; design: scale not given: the % may be the effect or the level left
[4] = system: Tyrosine-protein kinase ABL1 (Homo sapiens), P00519 [UNDEFINED MUTATION]; assay: Inhibition of non-phosphorylated human ABL1 […] mutant assessed as percent of control at 2000 nM by KINOMEscan assay relative to control; design: scale not given: the % may be the effect or the level left
[5] = target: Tyrosine-protein kinase ZAP-70 (Homo sapiens) (UniProt P43403); assay: Inhibition of human ZAP70 assessed as percent of control at 2000 nM by KINOMEscan assay relative to control; design: scale not given: the % may be the effect or the level left
[6] = target: Macrophage-stimulating protein receptor (Homo sapiens) (UniProt Q04912); assay: Inhibition of human MST1R assessed as percent of control at 2000 nM by KINOMEscan assay relative to control; design: scale not given: the % may be the effect or the level left
[7] = target: Casein kinase I isoform delta (Homo sapiens) (UniProt P48730); settings: INHIBITOR, dose 2000.0 nM
Description: Inhibition of human CSNK1D at 2000 nM by KINOMEscan assay

[8] = target: Serine/threonine-protein kinase STK11 (Homo sapiens) (UniProt Q15831); assay: Inhibition of human LKB1 assessed as percent of control at 2000 nM by KINOMEscan assay relative to control; design: scale not given: the % may be the effect or the level left
[9] = system: Mast/stem cell growth factor receptor Kit (Homo sapiens), P10721 [V559D,T670I]; assay: Inhibition of human KIT V559D/T670I double mutant assessed as percent of control at 2000 nM by KINOMEscan assay relative to control; design: scale not given: the % may be the effect or the level left
[10] = target: Cyclin-dependent kinase 18 (Homo sapiens) (UniProt Q07002); assay: Inhibition of human PCTK3 assessed as percent of control at 2000 nM by KINOMEscan assay relative to control; design: scale not given: the % may be the effect or the level left
[11] = target: Receptor-interacting serine/threonine-protein kinase 1 (Homo sapiens) (UniProt Q13546); assay: Inhibition of human RIPK1 assessed as percent of control at 2000 nM by KINOMEscan assay relative to control; design: scale not given: the % may be the effect or the level left
[12] = target: Cyclin-dependent kinase 3 (Homo sapiens) (UniProt Q00526); assay: Inhibition of human CDK3 assessed as percent of control at 2000 nM by KINOMEscan assay relative to control; design: scale not given: the % may be the effect or the level left
[13] = target: 3-phosphoinositide-dependent protein kinase 1 (Homo sapiens) (UniProt O15530); assay: Inhibition of human PDPK1 assessed as percent of control at 2000 nM by KINOMEscan assay relative to control; design: scale not given: the % may be the effect or the level left
[14] = target: Dual specificity mitogen-activated protein kinase kinase 4 (Homo sapiens) (UniProt P45985); assay: Inhibition of human MEK4 assessed as percent of control at 2000 nM by KINOMEscan assay relative to control; design: scale not given: the % may be the effect or the level left
[15] = target: Platelet-derived growth factor receptor beta (Homo sapiens) (UniProt P09619); assay: Inhibition of human PDGFRB assessed as percent of control at 2000 nM by KINOMEscan assay relative to control; design: scale not given: the % may be the effect or the level left
[16] = target: Death-associated protein kinase 2 (Homo sapiens) (UniProt Q9UIK4); assay: Inhibition of human DAPK2 assessed as percent of control at 2000 nM by KINOMEscan assay relative to control; design: scale not given: the % may be the effect or the level left
[17] = target: Phosphatidylinositol 5-phosphate 4-kinase type-2 gamma (Homo sapiens) (UniProt Q8TBX8); assay: Inhibition of human PIP5K2C assessed as percent of control at 2000 nM by KINOMEscan assay relative to control; design: scale not given: the % may be the effect or the level left
[18] = target: Tyrosine-protein kinase ABL2 (Homo sapiens) (UniProt P42684); assay: Inhibition of human ABL2 assessed as percent of control at 2000 nM by KINOMEscan assay relative to control; design: scale not given: the % may be the effect or the level left
[19] = target: Tyrosine-protein kinase receptor Tie-1 (Homo sapiens) (UniProt P35590); assay: Inhibition of human TIE1 assessed as percent of control at 2000 nM by KINOMEscan assay relative to control; design: scale not given: the % may be the effect or the level left
[20] = target: Serine/threonine-protein kinase mTOR (Homo sapiens) (UniProt P42345); assay: Inhibition of human MTOR assessed as percent of control at 2000 nM by KINOMEscan assay relative to control; design: scale not given: the % may be the effect or the level left
[21] = target: Serine/threonine-protein kinase MRCK beta (Homo sapiens) (UniProt Q9Y5S2); assay: Inhibition of human MRCKB assessed as percent of control at 2000 nM by KINOMEscan assay relative to control; design: scale not given: the % may be the effect or the level left
MDA-MB-468 = assay: Antitumor activity against human MDA-MB-468 cells xenografted in female immunodeficient NSG mouse assessed as decrease in tumor weight at 250 ppm, po incorporated into medicated diet for 13 days followed by 5 mg/kg, po dose administered daily and after 37 days administered 8 mg/kg, po dose; format: functional, organism-based
[22] = target: Serine/threonine-protein kinase N2 (Homo sapiens) (UniProt Q16513); assay: Inhibition of human PKN2 assessed as percent of control at 2000 nM by KINOMEscan assay relative to control; design: scale not given: the % may be the effect or the level left
[23] = target: Serine/threonine-protein kinase pim-2 (Homo sapiens) (UniProt Q9P1W9); assay: Inhibition of human PIM2 assessed as percent of control at 2000 nM by KINOMEscan assay relative to control; design: scale not given: the % may be the effect or the level left
[24] = target: Aurora kinase C (Homo sapiens) (UniProt Q9UQB9); assay: Inhibition of human AURKC assessed as percent of control at 2000 nM by KINOMEscan assay relative to control; design: scale not given: the % may be the effect or the level left
[25] = target: Calcium/calmodulin-dependent protein kinase type II subunit gamma (Homo sapiens) (UniProt Q13555); assay: Inhibition of human CAMK2G assessed as percent of control at 2000 nM by KINOMEscan assay relative to control; design: scale not given: the % may be the effect or the level left
[26] = system: Leucine-rich repeat serine/threonine-protein kinase 2 (Homo sapiens), Q5S007 [G2019S]; assay: Inhibition of human LRRK2 G2019S mutant assessed as percent of control at 2000 nM by KINOMEscan assay relative to control; design: scale not given: the % may be the effect or the level left
[27] = target: Mitogen-activated protein kinase 12 (Homo sapiens) (UniProt P53778); assay: Inhibition of human p38-gamma assessed as percent of control at 2000 nM by KINOMEscan assay relative to control; design: scale not given: the % may be the effect or the level left
[28] = target: Serine/threonine-protein kinase TBK1 (Homo sapiens) (UniProt Q9UHD2); assay: Inhibition of human TBK1 assessed as percent of control at 2000 nM by KINOMEscan assay relative to control; design: scale not given: the % may be the effect or the level left
[29] = target: Tyrosine-protein kinase JAK3 (Homo sapiens) (UniProt P52333); assay: Inhibition of human JAK3 JH1 catalytic domain assessed as percent of control at 2000 nM by KINOMEscan assay relative to control; design: scale not given: the % may be the effect or the level left
[30] = target: TRAF2 and NCK-interacting protein kinase (Homo sapiens) (UniProt Q9UKE5); assay: Inhibition of human TNIK assessed as percent of control at 2000 nM by KINOMEscan assay relative to control; design: scale not given: the % may be the effect or the level left

Chain of Serine/threonine-protein kinase N2 (Homo sapiens) (Q16513 whole entry, looked up): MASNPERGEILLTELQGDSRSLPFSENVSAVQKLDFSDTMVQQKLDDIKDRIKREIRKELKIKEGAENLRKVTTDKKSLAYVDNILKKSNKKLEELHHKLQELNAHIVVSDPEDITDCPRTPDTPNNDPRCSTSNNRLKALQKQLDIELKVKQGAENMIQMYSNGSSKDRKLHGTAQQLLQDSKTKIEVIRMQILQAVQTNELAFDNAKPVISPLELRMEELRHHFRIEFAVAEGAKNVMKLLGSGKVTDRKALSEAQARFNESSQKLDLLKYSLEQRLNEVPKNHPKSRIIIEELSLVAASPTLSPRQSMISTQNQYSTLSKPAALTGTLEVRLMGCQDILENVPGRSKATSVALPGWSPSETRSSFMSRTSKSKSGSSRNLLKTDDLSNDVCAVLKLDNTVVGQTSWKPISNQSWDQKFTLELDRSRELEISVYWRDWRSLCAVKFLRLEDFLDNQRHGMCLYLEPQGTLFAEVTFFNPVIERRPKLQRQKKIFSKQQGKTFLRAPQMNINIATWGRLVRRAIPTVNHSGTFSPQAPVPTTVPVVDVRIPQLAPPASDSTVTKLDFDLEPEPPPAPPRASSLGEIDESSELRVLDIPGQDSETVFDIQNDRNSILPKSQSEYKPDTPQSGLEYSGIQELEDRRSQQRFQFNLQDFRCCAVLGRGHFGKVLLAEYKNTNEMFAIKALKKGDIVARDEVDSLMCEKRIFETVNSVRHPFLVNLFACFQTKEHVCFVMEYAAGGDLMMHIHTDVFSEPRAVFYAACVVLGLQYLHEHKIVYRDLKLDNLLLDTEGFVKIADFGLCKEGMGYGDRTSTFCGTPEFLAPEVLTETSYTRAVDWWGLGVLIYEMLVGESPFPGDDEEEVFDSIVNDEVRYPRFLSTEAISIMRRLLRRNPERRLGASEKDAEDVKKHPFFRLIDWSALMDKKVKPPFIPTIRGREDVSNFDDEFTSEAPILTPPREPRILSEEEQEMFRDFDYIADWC
Chain of Phosphatidylinositol 5-phosphate 4-kinase type-2 gamma (Homo sapiens) (Q8TBX8 whole entry): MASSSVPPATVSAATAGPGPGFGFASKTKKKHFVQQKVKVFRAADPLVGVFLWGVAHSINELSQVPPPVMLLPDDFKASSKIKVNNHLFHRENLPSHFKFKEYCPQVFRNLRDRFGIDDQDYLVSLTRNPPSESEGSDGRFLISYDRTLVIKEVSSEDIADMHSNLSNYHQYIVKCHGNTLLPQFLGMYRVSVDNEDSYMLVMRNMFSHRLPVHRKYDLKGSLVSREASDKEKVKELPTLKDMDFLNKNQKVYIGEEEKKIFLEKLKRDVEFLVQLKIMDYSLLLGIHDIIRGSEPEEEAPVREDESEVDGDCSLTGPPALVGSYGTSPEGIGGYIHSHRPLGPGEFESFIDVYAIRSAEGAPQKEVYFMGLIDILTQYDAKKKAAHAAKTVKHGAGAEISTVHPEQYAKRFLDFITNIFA
Chain of Mitogen-activated protein kinase 12 (Homo sapiens) (P53778 whole entry): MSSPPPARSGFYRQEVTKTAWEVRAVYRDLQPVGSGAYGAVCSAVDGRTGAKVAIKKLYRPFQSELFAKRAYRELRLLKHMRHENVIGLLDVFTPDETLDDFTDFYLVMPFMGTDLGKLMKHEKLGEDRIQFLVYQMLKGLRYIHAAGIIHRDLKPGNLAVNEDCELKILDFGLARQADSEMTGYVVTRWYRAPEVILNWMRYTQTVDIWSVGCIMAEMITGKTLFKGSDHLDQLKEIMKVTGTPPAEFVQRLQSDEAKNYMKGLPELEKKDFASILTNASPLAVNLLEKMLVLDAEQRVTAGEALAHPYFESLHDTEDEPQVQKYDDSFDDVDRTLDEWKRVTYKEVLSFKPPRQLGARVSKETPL
Chain of Protein kinase C eta type (Homo sapiens) (P24723 whole entry): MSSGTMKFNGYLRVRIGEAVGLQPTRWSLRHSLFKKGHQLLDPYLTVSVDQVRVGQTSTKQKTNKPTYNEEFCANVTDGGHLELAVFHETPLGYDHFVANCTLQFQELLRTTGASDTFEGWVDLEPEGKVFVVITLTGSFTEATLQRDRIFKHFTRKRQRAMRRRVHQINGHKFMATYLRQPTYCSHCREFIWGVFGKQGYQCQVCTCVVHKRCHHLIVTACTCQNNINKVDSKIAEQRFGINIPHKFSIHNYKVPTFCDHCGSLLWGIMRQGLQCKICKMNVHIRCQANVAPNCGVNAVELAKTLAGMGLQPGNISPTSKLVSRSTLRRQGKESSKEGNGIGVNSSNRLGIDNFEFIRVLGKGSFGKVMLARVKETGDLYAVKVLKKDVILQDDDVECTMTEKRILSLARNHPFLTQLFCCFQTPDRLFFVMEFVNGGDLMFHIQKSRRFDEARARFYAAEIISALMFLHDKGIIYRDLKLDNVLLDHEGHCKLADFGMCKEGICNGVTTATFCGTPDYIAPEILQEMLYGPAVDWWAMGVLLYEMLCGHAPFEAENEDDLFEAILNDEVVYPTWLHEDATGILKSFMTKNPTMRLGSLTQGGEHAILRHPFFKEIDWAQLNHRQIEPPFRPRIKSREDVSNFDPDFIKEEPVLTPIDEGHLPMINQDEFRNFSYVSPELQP
Chain of Dual specificity mitogen-activated protein kinase kinase 4 (Homo sapiens) (P45985 whole entry): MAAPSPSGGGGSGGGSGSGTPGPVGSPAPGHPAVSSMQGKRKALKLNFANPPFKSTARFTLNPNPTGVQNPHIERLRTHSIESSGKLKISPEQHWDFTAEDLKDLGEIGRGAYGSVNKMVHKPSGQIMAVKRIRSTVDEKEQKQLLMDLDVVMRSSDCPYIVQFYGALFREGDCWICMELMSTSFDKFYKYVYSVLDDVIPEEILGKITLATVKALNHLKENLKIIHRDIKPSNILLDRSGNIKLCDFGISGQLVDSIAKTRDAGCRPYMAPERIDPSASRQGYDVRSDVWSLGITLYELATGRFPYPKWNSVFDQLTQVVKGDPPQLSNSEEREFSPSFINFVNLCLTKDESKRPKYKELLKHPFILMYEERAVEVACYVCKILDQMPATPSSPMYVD
Chain of Tyrosine-protein kinase ZAP-70 (Homo sapiens) (P43403 whole entry): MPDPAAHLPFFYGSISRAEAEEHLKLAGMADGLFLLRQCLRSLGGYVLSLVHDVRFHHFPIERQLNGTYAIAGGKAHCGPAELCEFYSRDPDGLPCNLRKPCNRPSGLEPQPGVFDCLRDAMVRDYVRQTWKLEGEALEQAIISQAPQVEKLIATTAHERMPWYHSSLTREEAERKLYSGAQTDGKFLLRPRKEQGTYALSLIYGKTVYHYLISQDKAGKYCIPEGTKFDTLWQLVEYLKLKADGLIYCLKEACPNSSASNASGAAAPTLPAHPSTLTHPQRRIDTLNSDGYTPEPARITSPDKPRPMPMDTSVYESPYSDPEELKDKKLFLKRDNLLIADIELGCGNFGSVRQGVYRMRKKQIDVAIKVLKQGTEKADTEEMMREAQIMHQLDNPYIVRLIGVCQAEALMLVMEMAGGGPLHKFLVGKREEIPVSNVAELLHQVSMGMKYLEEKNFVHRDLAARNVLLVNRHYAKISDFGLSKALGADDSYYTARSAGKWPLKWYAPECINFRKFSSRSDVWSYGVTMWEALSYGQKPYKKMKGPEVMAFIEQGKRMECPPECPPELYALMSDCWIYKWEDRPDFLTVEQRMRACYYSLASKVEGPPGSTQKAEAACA
Chain of Tyrosine-protein kinase receptor UFO (Homo sapiens) (P30530 whole entry): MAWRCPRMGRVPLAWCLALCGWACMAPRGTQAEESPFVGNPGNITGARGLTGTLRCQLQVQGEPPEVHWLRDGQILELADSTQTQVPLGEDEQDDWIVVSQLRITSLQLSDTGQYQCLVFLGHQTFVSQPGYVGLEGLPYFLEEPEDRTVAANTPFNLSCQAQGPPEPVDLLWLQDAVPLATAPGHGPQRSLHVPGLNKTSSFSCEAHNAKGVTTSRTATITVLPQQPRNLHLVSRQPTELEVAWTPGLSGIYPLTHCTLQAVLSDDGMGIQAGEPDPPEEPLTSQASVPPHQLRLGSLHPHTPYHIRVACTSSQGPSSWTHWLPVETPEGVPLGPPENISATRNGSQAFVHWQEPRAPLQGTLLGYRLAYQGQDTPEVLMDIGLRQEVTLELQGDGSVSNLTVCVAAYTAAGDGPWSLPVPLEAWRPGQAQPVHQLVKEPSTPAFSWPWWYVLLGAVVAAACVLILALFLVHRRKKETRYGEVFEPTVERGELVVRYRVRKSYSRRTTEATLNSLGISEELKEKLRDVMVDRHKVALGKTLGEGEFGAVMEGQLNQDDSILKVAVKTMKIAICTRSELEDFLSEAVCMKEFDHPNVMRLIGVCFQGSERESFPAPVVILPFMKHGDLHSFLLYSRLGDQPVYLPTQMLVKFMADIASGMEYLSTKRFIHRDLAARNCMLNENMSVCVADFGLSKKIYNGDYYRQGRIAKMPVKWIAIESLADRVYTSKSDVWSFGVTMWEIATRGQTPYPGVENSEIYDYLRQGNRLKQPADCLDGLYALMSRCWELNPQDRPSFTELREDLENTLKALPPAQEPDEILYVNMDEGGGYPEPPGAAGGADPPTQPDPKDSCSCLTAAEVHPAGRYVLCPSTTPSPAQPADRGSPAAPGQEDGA
Chain of Aurora kinase C (Homo sapiens) (Q9UQB9 whole entry): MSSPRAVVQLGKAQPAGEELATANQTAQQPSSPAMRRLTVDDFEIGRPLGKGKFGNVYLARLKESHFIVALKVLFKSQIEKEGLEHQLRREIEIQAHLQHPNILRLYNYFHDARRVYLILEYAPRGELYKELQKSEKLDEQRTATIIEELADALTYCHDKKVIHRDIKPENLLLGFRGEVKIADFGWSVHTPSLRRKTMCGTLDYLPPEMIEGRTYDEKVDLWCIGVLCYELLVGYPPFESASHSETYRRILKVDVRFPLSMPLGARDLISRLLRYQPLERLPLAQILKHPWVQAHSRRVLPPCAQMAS
Chain of Serine/threonine-protein kinase pim-2 (Homo sapiens) (Q9P1W9 whole entry, looked up): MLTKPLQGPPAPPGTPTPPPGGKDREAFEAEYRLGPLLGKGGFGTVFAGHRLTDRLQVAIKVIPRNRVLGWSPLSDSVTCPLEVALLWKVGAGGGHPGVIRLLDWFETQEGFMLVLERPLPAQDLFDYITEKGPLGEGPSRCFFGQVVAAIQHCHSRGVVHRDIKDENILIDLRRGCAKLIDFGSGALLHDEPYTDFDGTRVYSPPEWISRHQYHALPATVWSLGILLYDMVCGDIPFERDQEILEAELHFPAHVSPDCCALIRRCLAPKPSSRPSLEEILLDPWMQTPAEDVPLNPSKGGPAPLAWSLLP

In the case of `CN(C)C(=O)c1ccc(N2CCCN(c3ccnc4sc(C(N)=O)c(N)c34)CC2)cc1`, the Activity [1] is reported as 95% and 83%, the Activity [2] is reported as 99% and 96% and the Activity [3] is reported as 80% and 96%. The Activity [4] was 100% and 76%, the Activity [5] was 95% and 87% and the Activity [6] was 97% and 99%. The inhibition [7] was > 65%, the Activity [8] was 100% and 87% and the Activity [9] was 100% and 96%. For the same compound, the Activity [10] was 100%, the Activity [11] was 99% and 100% and the Activity [12] was 92% and 97%. For the same compound, the Activity [13] was 100% and 96%, the Activity [14] was 69% and 74% and the Activity [15] was 100% and 93%. For the same compound, the Activity [16] was 75% and 85%, the Activity [17] was 80% and 64% and the Activity [18] was 85% and 91%. The Activity [19] was 90% and 96%, the Activity [20] was 88% and 97% and the Activity [21] was 96% and 100%. The Activity (MDA-MB-468) was “Active”, the Activity [22] was 100% and the Activity [23] was 85% and 89%. For the same compound, the Activity [24] was 100%, the Activity [25] was 100% and the Activity [26] was 90% and 76%. The Activity [27] was 98% and 100%, the Activity [28] was 99% and 97% and the Activity [29] was 83% and 80%. The Activity [30] was 100% and 91%.
